From US6686394B1, “Aryl-chloro-ethyl ureas” (Sovar, Societe en Commandite, priority 1999, dated 2004)

Legend:
HT-29 [1] = experiment: Cytotoxicity assay C50/G50, MTT or resazurin (Example 16); assay type: cell-based, human; conditions: for IC50: Homo sapiens, day-3, read-out: G50 (concentration inhibiting cell growth by 50%); for C50 (concentration needed to kill 50% of the cellular population present at the beginning): day-3
Experimental: (§1) Cell culture. Tumor cell lines (B16-F0, Caco-2, DU-145, HT-29, MDA-MB-231 and other cell lines described so far in the patent application) were obtained from the American Type Culture Collection (ATCC HTB-26; Bethesda, Md.). Cells were grown in RPMI 1640 medium supplemented with 10% fetal bovine serum (Hyclone, Road Logan, Utah) and were cultured in a humidified atmosphere at 37° C. in 5% CO2.
(§2) Drugs: All drugs were dissolved in DMSO and the final concentration of DMSO in the culture medium was maintained at 0.5% (v/v).
(§3) Cytotoxiciy assays. At day-1, tumor cells in suspension in 100 μl were plated in microtiter plates (96 wells). On day-0, tumor cells were treated by addition of escalating concentrations of the drug (100 μl solution). On that day, the number of living cells was determined in wells that were untreated. This was performed in order to be able to evaluate the toxic concentration of the drug needed to kill 50% of the cellular population present at the beginning of the experiments. This value is represented by C50 in the table. At day-3, the number of living cells is determined using either MTT or resazurin assays. Growth inhibition activity of these compounds was expressed as the concentration of CAU inhibiting cell growth by 50% G50 in the following table
(§4) The MTT assay was as described above in Example 1. The Resazurin assay was performed as follows:
(§5) Aspirate the supernatant (cell suspension: centrifuge first)
(§6) Add 100 μL NaCl 0.9% (saline)
(§7) Add 50 μL RZ (resazurin 125 μg/ml/PBS: RPMI without FBS; 1:4) Incubate at 37° C.
(§8) Collect fluorescence data at different time.

MDA-MB-231 [2] = experiment: as above; assay type: cell-based, human; conditions: for IC50: Homo sapiens, day-3, read-out: G50 (concentration inhibiting cell growth by 50%); for C50 (concentration needed to kill 50% of the cellular population present at the beginning): day-3
Experimental: as §1, §2, §3, §4, §5, §6, §7, §8

B16-F0 [3] = experiment: as above; assay type: cell-based; conditions: for IC50: Mus musculus, B16F0, day-3, read-out: G50 (concentration inhibiting cell growth by 50%); for C50 (concentration needed to kill 50% of the cellular population present at the beginning): day-3
Experimental: as §1, §2, §3, §4, §5, §6, §7, §8

Caco-2 [4] = experiment: as above; assay type: cell-based; conditions: for IC50: Homo sapiens, day-3, read-out: G50 (concentration inhibiting cell growth by 50%); for C50 (concentration needed to kill 50% of the cellular population present at the beginning): day-3
Experimental: as §1, §2, §3, §4, §5, §6, §7, §8

DU-145 [5] = experiment: as above; assay type: cell-based; conditions: for IC50: Homo sapiens, day-3, read-out: G50 (concentration inhibiting cell growth by 50%); for C50 (concentration needed to kill 50% of the cellular population present at the beginning): day-3
Experimental: as §1, §2, §3, §4, §5, §6, §7, §8

B16-F0 [6] = experiment: Cytotoxicity assay G50, MTT or resazurin (Example 29); assay type: cell-based; conditions: Mus musculus, B16F0; cell line B16-F0
Experimental: as §1, §2
as §3, with “The” for “This was performed in order to be able to evaluate the toxic concentration of the drug needed to kill 50% of the cellular population present at the beginning of the experiments. This value is represented by C50 in the table. At day-3, the”
as §4, §5, §6
(§9) Add 50 μL RZ (resazurin 125 μg/ml/PBS: RPMI without FBS; 1:4)
as §8

Caco-2 [7] = experiment: as above; assay type: cell-based; conditions: Homo sapiens; cell line Caco-2
Experimental: as §1, §2
as §3, with “The” for “This was performed in order to be able to evaluate the toxic concentration of the drug needed to kill 50% of the cellular population present at the beginning of the experiments. This value is represented by C50 in the table. At day-3, the”
as §4, §5, §6, §9, §8

DU-145 [8] = experiment: as above; assay type: cell-based; conditions: Homo sapiens; cell line DU-145
Experimental: as §1, §2
as §3, with “The” for “This was performed in order to be able to evaluate the toxic concentration of the drug needed to kill 50% of the cellular population present at the beginning of the experiments. This value is represented by C50 in the table. At day-3, the”
as §4, §5, §6, §9, §8

HT-29 [9] = experiment: as above; assay type: cell-based; conditions: Homo sapiens; cell line HT-29
Experimental: as §1, §2
as §3, with “The” for “This was performed in order to be able to evaluate the toxic concentration of the drug needed to kill 50% of the cellular population present at the beginning of the experiments. This value is represented by C50 in the table. At day-3, the”
as §4, §5, §6, §9, §8

MDA-MB-231 [10] = experiment: as above; assay type: cell-based; conditions: Homo sapiens; cell line MDA-MB-231
Experimental: as §1, §2
as §3, with “The” for “This was performed in order to be able to evaluate the toxic concentration of the drug needed to kill 50% of the cellular population present at the beginning of the experiments. This value is represented by C50 in the table. At day-3, the”
as §4, §5, §6, §9, §8

CHO = experiment: as above; assay type: cell-based, Chinese Hamster; conditions: Cricetulus griseus; cell line CHO
Experimental: as §4, §5, §6, §9, §8

K562 = experiment: as above; assay type: cell-based; conditions: Homo sapiens; cell line K562
Experimental: as §4, §5, §6, §9, §8

L1210 = experiment: as above; assay type: cell-based; conditions: Mus musculus; cell line L1210
Experimental: as §4, §5, §6, §9, §8

MCF-7 = experiment: as above; assay type: cell-based; conditions: Homo sapiens, MCF7; cell line MCF-7
Experimental: as §4, §5, §6, §9, §8

T24 = experiment: as above; assay type: cell-based; conditions: Homo sapiens, T-24; cell line T24
Experimental: as §4, §5, §6, §9, §8

| Structure (SMILES) | IC50 (HT-29 [1]) [µM] | C50 (concentration needed to kill 50% of the cellular population present at the beginning) (HT-29 [1]) [µM] | IC50 (MDA-MB-231 [2]) [µM] | C50 (concentration needed to kill 50% of the cellular population present at the beginning) (MDA-MB-231 [2]) [µM] | IC50 (B16-F0 [3]) [µM] | C50 (concentration needed to kill 50% of the cellular population present at the beginning) (B16-F0 [3]) [µM] | IC50 (Caco-2 [4]) [µM] | C50 (concentration needed to kill 50% of the cellular population present at the beginning) (Caco-2 [4]) [µM] | IC50 (DU-145 [5]) [µM] | C50 (concentration needed to kill 50% of the cellular population present at the beginning) (DU-145 [5]) [µM] | IC50 (B16-F0 [6]) [µM] | IC50 (Caco-2 [7]) [µM] | IC50 (DU-145 [8]) [µM] | IC50 (HT-29 [9]) [µM] | IC50 (MDA-MB-231 [10]) [µM] | IC50 (CHO) [µM] | IC50 (K562) [µM] | IC50 (L1210) [µM] | IC50 (MCF-7) [µM] | IC50 (T24) [µM] |
| --- | --- | --- | --- | --- | --- | --- | --- | --- | --- | --- | --- | --- | --- | --- | --- | --- | --- | --- | --- | --- |
| CCCCCCc1ccc(NC(=O)NC(CCl)CCC)cc1 (racemic) [Example 14] | 10.7 | 20.3 | 18.9 | 32.3 | 15.8 | 21.3 | 12.7 | 21.1 | 10.9 | 19.6 |  |  |  |  |  |  |  |  |  |  |
| CCCC(CCl)NC(=O)Nc1ccc(C2CCCCC2)cc1 (racemic) [Example 25] |  |  |  |  |  |  |  |  |  |  | 4.14 | 6.04 | 4.3 | 3.03 | 6.37 | 2.12 | 4.93 | 4.12 | 5.05 | 4.24 |
| CCCCCCc1ccc(NC(=O)N[C@H](C)CCl)cc1 [Example 6] | 32.3 | 44.5 | 31.5 | 43.3 | 26.3 | 31.3 | 35.8 | 44.2 | 18.9 | 39.5 |  |  |  |  |  |  |  |  |  |  |
| CCCCCCc1ccc(NC(=O)N[C@@H](C)CCl)cc1 [Example 7] | 5.1 | 12.8 | 11.7 | 31.9 | 16.3 | 18.2 | 12.6 | 21.1 | 6.3 | 11.8 |  |  |  |  |  |  |  |  |  |  |
| C[C@@H](CCl)NC(=O)Nc1ccc(C2CCCCC2)cc1 [Example 8] | 17.1 | 23.9 | 27.6 | 42.3 | 21.8 | 22.1 | 15.4 | 20.3 | 8.6 | 25.2 |  |  |  |  |  |  |  |  |  |  |
| C[C@H](CCl)NC(=O)Nc1ccc(C2CCCCC2)cc1 [Example 9] | 19 | 28.1 | 27.5 | 42.9 | 15.4 | 17.4 | 8.6 | 14.7 | 7.8 | 27.6 |  |  |  |  |  |  |  |  |  |  |
| CCCCCCc1ccc(NC(=O)N[C@H](CC)CCl)cc1 [Example 10] | 20.8 | 36.8 | 18 | 40.6 | 18.8 | 24.9 | 10.2 | 13.7 | 7.4 | 27.2 |  |  |  |  |  |  |  |  |  |  |
| CCCCCCc1ccc(NC(=O)N[C@@H](CC)CCl)cc1 [Example 11] | 13.1 | 20.8 | 15.1 | 30.1 | 14.1 | 18.3 | 7.5 | 10.9 | 4.6 | 15.8 |  |  |  |  |  |  |  |  |  |  |
| CC[C@H](CCl)NC(=O)Nc1ccc(C2CCCCC2)cc1 [Example 12] | 13.6 | 22.8 | 19.6 | 40.3 | 17.3 | 21.5 | 10 | 17.7 | 7.3 | 22.2 |  |  |  |  |  |  |  |  |  |  |
| CC[C@@H](CCl)NC(=O)Nc1ccc(C2CCCCC2)cc1 [Example 13] | 9.8 | 16.3 | 16.3 | 32.5 | 15.5 | 17.7 | 9.9 | 15.6 | 6.9 | 16.2 |  |  |  |  |  |  |  |  |  |  |
| COc1ccc(NC(=O)N[C@H](C)CCl)cc1OC [Example 17] |  |  |  |  |  |  |  |  |  |  | 26.4 | > 100 | 34.9 | 14.8 | 43.6 | 32.2 | 9.62 | 10.3 | 25.1 | 12.4 |
| COc1ccc(NC(=O)N[C@@H](C)CCl)cc1OC [Example 18] |  |  |  |  |  |  |  |  |  |  | > 100 | > 100 | > 100 | > 100 | > 100 | > 100 | > 100 | > 100 | > 100 | > 100 |
| CC[C@@H](CCl)NC(=O)Nc1ccc(OC)c(OC)c1 [Example 19] |  |  |  |  |  |  |  |  |  |  | > 100 | > 100 | > 100 | > 100 | > 100 | > 100 | > 100 | > 100 | > 100 | > 100 |
| CC[C@H](CCl)NC(=O)Nc1ccc(OC)c(OC)c1 [Example 20] |  |  |  |  |  |  |  |  |  |  | > 100 | > 100 | > 100 | > 100 | > 100 | > 100 | > 100 | > 100 | > 100 | > 100 |
| CCCCCCCc1ccc(NC(=O)N[C@H](C)CCl)cc1 [Example 21] |  |  |  |  |  |  |  |  |  |  | 3.79 | 4.94 | 3.63 | 2.17 | 4.64 | 3.46 | 2.41 | 2.42 | 3.31 | 2.18 |
| CCCCCCCc1ccc(NC(=O)N[C@@H](C)CCl)cc1 [Example 22] |  |  |  |  |  |  |  |  |  |  | 6.6 | 7.61 | 7.46 | 7.69 | 8.33 | 3.8 | 6.96 | 7.48 | 5.56 | 6.15 |
| CCCCCCCc1ccc(NC(=O)N[C@@H](CC)CCl)cc1 [Example 23] |  |  |  |  |  |  |  |  |  |  | 4.77 | 6.32 | 4.89 | 5.01 | 6.12 | 4.2 | 3.59 | 5.67 | 4.2 | 3.93 |
